In US20230295234A1, “ANTIMICROBIAL PEPTIDOMIMETICS” (SPEXIS AG, priority 2020, published 2023):
Bridge positions count the residues as written; N and C are the ends. Square brackets hold non-standard residues; d marks the D form. Peptide text beside a SMILES is read from it. * marks the point of attachment. Val(Nα-amidino) = CC(C)[C@H](NC(=N)N)C(=O)*; Pro(4R-NH2) = N[C@H]1CN[C@H](C(=O)O)C1; Pen = CC(C)(S)[C@H](N)C(=O)O; dDab = NCC[C@@H](N)C(=O)O; Dab = NCC[C@H](N)C(=O)O

How the values were obtained:
[1] = system: Escherichia coli MCR-1 Af 45; details: Mueller-Hinton broth II, 18-20 hours at 35° C.
Method in brief: (§1)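 Standardized inocula (0.5 McFarland in saline, then diluted in MHII broth to approximately 5×10^5 CFU/mL) were exposed to two-fold dilution series of each peptide in the presence of polysorbate 80 (0.002% final).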

[2] = system: Escherichia coli ATCC 25922; details: ATCC 25922
Method in brief: as §1

[3] = system: Klebsiella pneumoniae SSI3010; details: SSI3010
Method in brief: as §1

[4] = system: human red blood cells (hRBC); assay: Hemolysis of human red blood cells; assay type: cell-based; details: red cells of human, 1 h
Method in brief: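 Percent hemolysis is OD540 of peptide-treated supernatant relative to water-lysed cells. Each peptide was tested at 200 μg/mL against 20% (v/v) washed human erythrocytes. Incubation was 1 h at 37 °C, 300 rpm.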

SMILES | Escherichia coli MCR-1 Af 45 MIC [1] [µg/mL] | Escherichia coli ATCC 25922 MIC [2] [µg/mL] | Klebsiella pneumoniae SSI3010 MIC [3] [µg/mL] | Hemolysis at 0.2 g/L [4] [%]
CC[C@H](C)[C@H](NC(=O)[C@@H]1C[C@@H](O)CN1C(=O)[C@@H](NC(=N)N)C(C)C)C(=O)N[C@H](C(=O)N[C@@H](Cc1ccc(O)cc1)C(=O)N[C@@H]1C(=O)N[C@@H](CCC(=O)O)C(=O)N[C@@H](CCCNC(=N)N)C(=O)N[C@@H](CCN)C(=O)N[C@@H]([C@@H](C)O)C(=O)N[C@H](CCN)C(=O)N[C@@H](CCCCN)C(=O)N[C@H](C(=O)N[C@@H](CCN)C(=O)N[C@@H](CCCNC(=N)N)C(=O)N[C@@H](Cc2ccc(O)cc2)C(=O)O)CSSC1(C)C)[C@@H](C)O [Example 193] (HELM PEPTIDE1{[CC(C)[C@H](NC(=N)N)C(=O)[*:2]].[Hyp].I.T.Y.[Pen].E.R.[Dab].T.[NCC[C@@H](N[*:1])C(=O)[*:2]].K.C.[Dab].R.Y}$PEPTIDE1,PEPTIDE1,6:R3-13:R3$$$V2.0) | 0.25 | 0.25 | 0.5 | 0
CC[C@H](C)[C@H](NC(=O)[C@@H]1C[C@@H](O)CN1C(=O)[C@@H](NC(=N)N)C(C)C)C(=O)N[C@H](C(=O)N[C@@H](Cc1ccc(O)cc1)C(=O)N[C@@H]1C(=O)N[C@@H](Cc2c[nH]cn2)C(=O)N[C@@H](CCCNC(=N)N)C(=O)N[C@@H](CCN)C(=O)N[C@@H]([C@@H](C)O)C(=O)N[C@H](CCN)C(=O)N[C@@H](CCCCN)C(=O)N[C@H](C(=O)N[C@@H](CCN)C(=O)N[C@@H](CCCNC(=N)N)C(=O)N[C@@H](Cc2ccc(O)cc2)C(=O)O)CSSC1(C)C)[C@@H](C)O [Example 194] (HELM PEPTIDE1{[CC(C)[C@H](NC(=N)N)C(=O)[*:2]].[Hyp].I.T.Y.[Pen].H.R.[Dab].T.[NCC[C@@H](N[*:1])C(=O)[*:2]].K.C.[Dab].R.Y}$PEPTIDE1,PEPTIDE1,6:R3-13:R3$$$V2.0) | 0.125 | 0.25 | 0.25 | 0
CC[C@H](C)[C@H](NC(=O)[C@@H]1C[C@@H](O)CN1C(=O)[C@@H](NC(=N)N)C(C)C)C(=O)N[C@H](C(=O)N[C@@H](Cc1ccc(O)cc1)C(=O)N[C@@H]1C(=O)N[C@@H](CC(N)=O)C(=O)N[C@@H](CCCNC(=N)N)C(=O)N[C@@H](CCN)C(=O)N[C@@H]([C@@H](C)O)C(=O)N[C@H](CCN)C(=O)N[C@@H](CCN)C(=O)N[C@H](C(=O)N[C@@H](CCN)C(=O)N[C@@H](CCCNC(=N)N)C(=O)N[C@@H](Cc2ccc(O)cc2)C(=O)O)CSSC1(C)C)[C@@H](C)O [Example 195] (HELM PEPTIDE1{[CC(C)[C@H](NC(=N)N)C(=O)[*:2]].[Hyp].I.T.Y.[Pen].N.R.[Dab].T.[NCC[C@@H](N[*:1])C(=O)[*:2]].[Dab].C.[Dab].R.Y}$PEPTIDE1,PEPTIDE1,6:R3-13:R3$$$V2.0) | 0.0625 | 0.25 | 0.125 | 0
CC[C@H](C)[C@H](NC(=O)[C@@H]1C[C@@H](O)CN1C(=O)[C@@H](NC(=N)N)C(C)C)C(=O)N[C@H](C(=O)N[C@@H](Cc1ccc(O)cc1)C(=O)N[C@@H]1C(=O)N[C@@H](CC(N)=O)C(=O)N[C@@H](CCCNC(=N)N)C(=O)N[C@@H](CCN)C(=O)N[C@@H](CO)C(=O)N[C@H](CCN)C(=O)N[C@@H](CCCCN)C(=O)N[C@H](C(=O)N[C@@H](CCN)C(=O)N[C@@H](CCCNC(=N)N)C(=O)N[C@@H](Cc2ccc(O)cc2)C(=O)O)CSSC1(C)C)[C@@H](C)O [Example 196] (HELM PEPTIDE1{[CC(C)[C@H](NC(=N)N)C(=O)[*:2]].[Hyp].I.T.Y.[Pen].N.R.[Dab].S.[NCC[C@@H](N[*:1])C(=O)[*:2]].K.C.[Dab].R.Y}$PEPTIDE1,PEPTIDE1,6:R3-13:R3$$$V2.0) | 0.0625 | 0.125 | 0.125 | 0
CC[C@H](C)[C@H](NC(=O)[C@@H]1C[C@@H](O)CN1C(=O)[C@@H](NC(=N)N)C(C)C)C(=O)N[C@H](C(=O)N[C@@H](Cc1ccc(O)cc1)C(=O)N[C@@H]1C(=O)N[C@@H](CC(N)=O)C(=O)N[C@@H](CCCNC(=N)N)C(=O)N[C@@H](CCN)C(=O)N[C@@H](CO)C(=O)N[C@H](CCN)C(=O)N[C@@H](CCCCN)C(=O)N[C@H](C(=O)N[C@@H](CCN)C(=O)N[C@@H](CCN)C(=O)N[C@@H](Cc2ccc(O)cc2)C(=O)O)CSSC1(C)C)[C@@H](C)O [Example 197] (HELM PEPTIDE1{[CC(C)[C@H](NC(=N)N)C(=O)[*:2]].[Hyp].I.T.Y.[Pen].N.R.[Dab].S.[NCC[C@@H](N[*:1])C(=O)[*:2]].K.C.[Dab].[Dab].Y}$PEPTIDE1,PEPTIDE1,6:R3-13:R3$$$V2.0) | 0.0625 | 0.0625 | 0.125 | 0
CC[C@H](C)[C@H](NC(=O)[C@@H]1C[C@@H](O)CN1C(=O)[C@@H](NC(=N)N)C(C)C)C(=O)N[C@H](C(=O)N[C@@H](Cc1ccc(O)cc1)C(=O)N[C@@H]1C(=O)N[C@@H](CC(N)=O)C(=O)N[C@@H](CCCNC(=N)N)C(=O)N[C@@H](CCN)C(=O)N[C@@H](CO)C(=O)N[C@H](CCN)C(=O)N[C@@H](CCCCN)C(=O)N[C@H](C(=O)N[C@@H](CCN)C(=O)N[C@@H](CCCN)C(=O)N[C@@H](Cc2ccc(O)cc2)C(=O)O)CSSC1(C)C)[C@@H](C)O [Example 198] (HELM PEPTIDE1{[CC(C)[C@H](NC(=N)N)C(=O)[*:2]].[Hyp].I.T.Y.[Pen].N.R.[Dab].S.[NCC[C@@H](N[*:1])C(=O)[*:2]].K.C.[Dab].[Orn].Y}$PEPTIDE1,PEPTIDE1,6:R3-13:R3$$$V2.0) | 0.0625 | 0.125 | 0.125 | 0
CC[C@H](C)[C@H](NC(=O)[C@@H]1C[C@@H](N)CN1C(=O)[C@@H](NC(=N)N)C(C)C)C(=O)N[C@H](C(=O)N[C@@H](Cc1ccc(O)cc1)C(=O)N[C@@H]1C(=O)N[C@@H](CC(N)=O)C(=O)N[C@@H](CCCNC(=N)N)C(=O)N[C@@H](CCN)C(=O)N[C@@H]([C@@H](C)O)C(=O)N[C@H](CCN)C(=O)N[C@@H](CCCCN)C(=O)N[C@H](C(=O)N[C@@H](Cc2ccc(O)cc2)C(=O)N[C@@H](CCCNC(=N)N)C(=O)N[C@@H](Cc2ccc(O)cc2)C(=O)O)CSSC1(C)C)[C@@H](C)O [Example 199] ({Val(Nα-amidino)}-[Pro(4R-NH2)]ITY[Pen]NR[Dab]T[dDab]KCYRY-OH; disulfide 5-12) | 0.125 | 0.25 | 0.25 | 0
CC[C@H](C)[C@H](NC(=O)[C@@H](NC(=O)[C@@H]1C[C@@H](N)CN1C(=O)[C@@H](NC(=N)N)C(C)C)[C@@H](C)CC)C(=O)N[C@@H](Cc1ccc(O)cc1)C(=O)N[C@@H]1C(=O)N[C@@H](CC(N)=O)C(=O)N[C@@H](CCCNC(=N)N)C(=O)N[C@@H](CCN)C(=O)N[C@@H]([C@@H](C)O)C(=O)N[C@H](CCN)C(=O)N[C@@H](CCCCN)C(=O)N[C@H](C(=O)N[C@@H](Cc2ccc(O)cc2)C(=O)N[C@@H](CCCNC(=N)N)C(=O)N[C@@H](Cc2ccc(O)cc2)C(=O)O)CSSC1(C)C [Example 200] ({Val(Nα-amidino)}-[Pro(4R-NH2)]IIY[Pen]NR[Dab]T[dDab]KCYRY-OH; disulfide 5-12) | 0.125 | 0.5 | 0.125 | 0
